Results taken from article PMC2358886, “Evolution of pharmacologic specificity in the pregnane X receptor” (BMC Evolutionary Biology, 2008).
Where two headings read alike, the source gives them in different places.

Columns and labels:
human PXR [1] = molecular target: T1, human PXR (Homo sapiens, UniProt O75469)
T1 sequence (O75469 1-434): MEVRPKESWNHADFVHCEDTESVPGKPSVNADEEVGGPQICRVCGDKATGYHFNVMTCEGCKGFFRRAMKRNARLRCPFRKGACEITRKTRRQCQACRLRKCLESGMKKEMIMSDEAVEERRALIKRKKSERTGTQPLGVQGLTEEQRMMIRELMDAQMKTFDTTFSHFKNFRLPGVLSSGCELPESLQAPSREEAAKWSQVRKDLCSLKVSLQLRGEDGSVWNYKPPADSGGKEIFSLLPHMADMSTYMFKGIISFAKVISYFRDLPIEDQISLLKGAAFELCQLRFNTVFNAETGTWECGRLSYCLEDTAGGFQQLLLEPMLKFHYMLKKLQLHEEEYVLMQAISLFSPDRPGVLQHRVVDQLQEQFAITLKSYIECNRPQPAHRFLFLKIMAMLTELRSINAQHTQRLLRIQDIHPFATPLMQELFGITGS

zebrafish PXR = molecular target: T2, zebrafish PXR (Danio rerio, UniProt A5WYG8)
T2 sequence (A5WYG8 144-430): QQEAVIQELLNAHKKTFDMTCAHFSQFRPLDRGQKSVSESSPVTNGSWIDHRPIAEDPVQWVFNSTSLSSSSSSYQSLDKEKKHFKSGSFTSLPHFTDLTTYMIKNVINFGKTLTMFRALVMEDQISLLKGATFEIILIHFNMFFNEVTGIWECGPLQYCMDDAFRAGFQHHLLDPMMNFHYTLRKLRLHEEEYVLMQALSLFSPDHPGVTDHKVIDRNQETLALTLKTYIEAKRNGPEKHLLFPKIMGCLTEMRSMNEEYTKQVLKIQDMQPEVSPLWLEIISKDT

human PXR [2] = molecular target: T1, human PXR; test: PXR activation luciferase reporter assay, human PXR in HepG2-NTCP cells
[3] = -log(EC50), EC50 in molar units, activation of zebrafish PXR
[4] = Human PXR EC50 (concentration class, Figure 2A), class read from box colour against the key of Figure 2
[5] = hPXR Activity, -log(EC50), EC50 in molar units, activation of human PXR

Molecule | hPXR Activity (human PXR [1]) | zfPXR Activity (zebrafish PXR; [3]) | Toxicity (HepG2 cells) | other results
4-Pregnen-20β-ol-3,20-dione-17α-sulfate [PR22] | 5.73 | None | None | –
C[C@]12CCC(=O)C[C@@H]1CC[C@@H]1[C@@H]2CC[C@]2(C)C(=O)CC[C@@H]12 [AN2, 5α-Androstan-3,17-dione] | – | – | None | hPXR Efficacy (human PXR [1]; human): 0.87
C[C@]12CC[C@H]3[C@@H](CCC4=CC(=O)CC[C@@]43C)[C@@H]1CC[C@@H]2O [AN8, 4-Androsten-17β-ol-3-one] | – | – | None | hPXR Efficacy (human PXR [1]; human): 0.22
C[C@]12CC[C@H](O)CC1=CC[C@@H]1[C@@H]2CC[C@]2(C)C(=O)CC[C@@H]12 [AN9, 5-Androsten-3β-ol-17-one] | 4.49 | – | None | EC50 (human PXR [1]): 11 to 50 µM; hPXR Efficacy (human PXR [1]): 0.52; EC50 (zebrafish PXR): 11 to 50 µM; zfPXR Activity (zebrafish PXR): 4.89; zfPXR Efficacy (zebrafish PXR): 0.35
C[C@]12CC[C@H]3[C@@H](CCC4=CC(=O)CC[C@@]43C)[C@@H]1CC[C@H]2O [AN15, 4-Androsten-17α-ol-3-one] | – | – | None | hPXR Efficacy (human PXR [1]; human): 0.9
C[C@H](CC(=O)O)[C@H]1CC[C@H]2[C@@H]3CC[C@@H]4C[C@H](O)CC[C@]4(C)[C@H]3C[C@H](O)[C@]12C [BI26, 23-Nordeoxycholic acid] | 4.79 | None | None | –
C[C@H](CC(=O)O)[C@H]1CC[C@H]2[C@@H]3[C@H](O)C[C@@H]4C[C@H](O)CC[C@]4(C)[C@H]3C[C@H](O)[C@]12C [BI27, 23-Norcholic acid] | 4.02 | None | None | –
C[C@H](CCCO)[C@H]1CC[C@H]2[C@@H]3[C@H](O)C[C@H]4C[C@H](O)CC[C@]4(C)[C@H]3C[C@H](O)[C@]12C [BI29, 5α-Cholan-3α,7α,12α,-24-tetrol] | None | None | 50 µM | –
C[C@H](CCCOS(=O)(=O)O)[C@H]1CC[C@H]2[C@@H]3[C@H](O)C[C@H]4CC(=O)CC[C@]4(C)[C@H]3C[C@H](O)[C@]12C [BI32, 5α-Cholan-7α,12α-diol-3-one-24-sulfate] | None | None | None | –
C[C@H](CCC(O)C(CO)CO)[C@H]1CC[C@H]2[C@@H]3[C@H](O)C[C@@H]4C[C@H](O)CC[C@]4(C)[C@H]3C[C@H](O)[C@]12C (stereo partly drawn) [BI35, 5β-Cholestan-3α,7α,12α,24,26-hexol] | None | None | 100 µM | –
C[C@H](CCCC(CO)CO)[C@H]1CC[C@H]2[C@@H]3[C@H](O)C[C@@H]4C[C@H](O)CC[C@]4(C)[C@H]3C[C@H](O)[C@]12C [BI37, 5β-Cholestan-3α,7α,12α,26,27-pentol] | None | None | – | Toxicity (HepG2 cells; human, 24 hr): 50 µM
CC(CO)CCC[C@@H](C)[C@H]1[C@H](O)C[C@H]2[C@@H]3[C@H](O)C[C@H]4C[C@@H](O)CC[C@]4(C)[C@H]3CC[C@]12C (stereo partly drawn) [BI40, 5α-Cholestan-3β,7α,16α,27-tetrol] | None | None | – | Toxicity (HepG2 cells; human, 24 hr): 100 µM
CC(C)CCC[C@@H](C)[C@H]1CC[C@H]2[C@@H]3CC=C4C[C@@H](O)CC[C@]4(C)[C@H]3CC[C@]12C [Cholesterol] | – | – | – | Human PXR EC50 (concentration class, Figure 2A) (human PXR [1]): Inactive
C[C@]12CC[C@@H]3c4ccc(O)cc4CC[C@H]3[C@@H]1C[C@@H](O)[C@@H]2O [ES3, 1,3,5(10)-Estratrien-3,16α,17β-triol] | None | None | – | Toxicity (HepG2 cells; human, 24 hr): 200 µM
C[C@]12CC[C@@H]3c4ccc(O)cc4CC[C@H]3[C@@H]1C[C@@H](O)C2=O [ES4, 1,3,5(10)-Estratrien-3,16α-diol-17-one] | 5.60 | 5.70 | None | zfPXR Efficacy (zebrafish PXR): 0.17
COc1c(O)ccc2c1CC[C@@H]1[C@@H]2CC[C@]2(C)C(=O)CC[C@@H]12 [ES5, 1,3,5(10)-Estratrien-3-ol-4-methoxy-17-one] | 5.40 | 5.62 | None | zfPXR Efficacy (zebrafish PXR): 0.19
C[C@]12CC[C@@H]3c4ccc(OS(=O)(=O)O)cc4CC[C@H]3[C@@H]1CCC2=O [ES8, 1,3,5(10)-Estratrien-17-one-3-sulfate] | 5.47 | None | None | –
C#C[C@]1(O)CC[C@H]2[C@@H]3CCc4cc(O)ccc4[C@H]3CC[C@@]21C [ES11, 1,3,5(10)-Estratrien-17α-ethinyl-3,17β-diol] | – | None | – | hPXR Efficacy (human PXR [1]; human): 0.68; Toxicity (HepG2 cells; human, 24 hr): 200 µM
Nc1cccc(C(=O)O)c1 [MI2, 3-Aminobenzoic acid] | None | None | None | –
Cn1c(=O)c2c(ncn2C)n(C)c1=O [MI6, Caffeine] | None | – | – | –
CCC1(c2ccccc2)C(=O)NC(=O)NC1=O [MI25, Phenobarbital] | – | – | None | hPXR Efficacy (human PXR [1]; human): 1.19
C[C@]12CCC(=O)C=C1CC[C@@H]1[C@@H]2C(=O)C[C@@]2(C)[C@H]1CC[C@]2(O)C(=O)CO [PR6, 4-Pregnen-17,21-diol-3,11,20-trione] | – | – | – | Zebrafish PXR EC50 (concentration class, Figure 2B) (zebrafish PXR): Inactive; zfPXR Activity (zebrafish PXR): None; Toxicity (HepG2 cells; human, 24 hr): 200 µM; EC50 (human PXR [2]; [4]): 51 to 200 µM; EC50 (human PXR [2]; [5]): 69.2 µM
CC(=O)[C@H]1CC[C@H]2[C@@H]3CCC4=CC(=O)CC[C@]4(C)[C@H]3CC[C@]12C [PR7, 4-Pregnen-3,20-dione] | – | None | – | Toxicity (HepG2 cells; human, 24 hr): 200 µM; EC50 (human PXR [2]; [4]): 11 to 50 µM; EC50 (human PXR [2]; [5]): 14.8 µM
CC(=O)[C@H]1CC[C@H]2[C@@H]3CC=C4C[C@@H](O)CC[C@]4(C)[C@H]3CC[C@]12C [PR12, 5-Pregnen-3β-diol-20-one] | – | 6.32 | None | zfPXR Efficacy (zebrafish PXR; relative to 20 μM 5α-androstan-3α-ol, assigned an efficacy of 1.0): 2.05; hPXR Activity (human PXR [2]; -log(EC50), EC50 in molar units, activation of human PXR): 5.64; hPXR Efficacy (human PXR [2]; relative to 10 μM rifampicin, assigned an efficacy of 1.0): 1.26
C[C@@H]1C[C@H]2[C@@H]3CCC4=CC(=O)C=C[C@]4(C)[C@@]3(F)[C@@H](O)C[C@]2(C)[C@@]1(O)C(=O)CO [PR29, 1,4-Pregnadien-9α-fluoro-16α-methyl-11β,17,21-triol-3,20-dione] | – | – | None | zfPXR Activity (zebrafish PXR): None; EC50 (human PXR [2]; hPXR Activity): 40.7 µM
